# The CheMixHub viscosity set
# ± gives the uncertainty stated by the source.
# Experiment: xn = mol fraction of the nth substance listed
compound,measurement,setting,value
NC=O + CCCO,viscosity,"308.15 K, 101.3 kPa, x1 = 0.7654",2.3 ± 0.1 mPa·s
same,viscosity,"308.15 K, 101.3 kPa, x1 = 0.8114",2.4 ± 0.1 mPa·s
same,viscosity,"308.15 K, 101.3 kPa, x1 = 0.921",2.5 ± 0.1 mPa·s
same,viscosity,"313.15 K, 101 kPa, x1 = 0.0557",1.349 ± 0.0087 mPa·s
same,viscosity,"313.15 K, 101 kPa, x1 = 0.1172",1.388 ± 0.0089 mPa·s
same,viscosity,"313.15 K, 101 kPa, x1 = 0.1854",1.457 ± 0.0093 mPa·s
same,viscosity,"313.15 K, 101 kPa, x1 = 0.2615",1.595 ± 0.01 mPa·s
same,viscosity,"313.15 K, 101 kPa, x2 = 0.0999",2.285 ± 0.022 mPa·s
same,viscosity,"313.15 K, 101 kPa, x2 = 0.2004",2.223 ± 0.022 mPa·s
same,viscosity,"313.15 K, 101 kPa, x2 = 0.3002",2.133 ± 0.021 mPa·s
same,viscosity,"313.15 K, 101 kPa, x2 = 0.4",2.015 ± 0.019 mPa·s
same,viscosity,"313.15 K, 101 kPa, x2 = 0.5",1.881 ± 0.018 mPa·s
same,viscosity,"313.15 K, 101 kPa, x2 = 0.6",1.74 ± 0.016 mPa·s
same,viscosity,"313.15 K, 101 kPa, x2 = 0.6998",1.61 ± 0.015 mPa·s
same,viscosity,"313.15 K, 101 kPa, x2 = 0.8",1.494 ± 0.014 mPa·s
same,viscosity,"313.15 K, 101 kPa, x2 = 0.9001",1.407 ± 0.013 mPa·s
same,viscosity,"313.15 K, 101.3 kPa, x1 = 0.0961",1.3 ± 0.1 mPa·s
same,viscosity,"313.15 K, 101.3 kPa, x1 = 0.1755",1.3 ± 0.1 mPa·s
same,viscosity,"313.15 K, 101.3 kPa, x1 = 0.2494",1.4 ± 0.1 mPa·s
same,viscosity,"313.15 K, 101.3 kPa, x1 = 0.3192",1.5 ± 0.1 mPa·s
same,viscosity,"313.15 K, 101.3 kPa, x1 = 0.3902",1.6 ± 0.1 mPa·s
same,viscosity,"313.15 K, 101.3 kPa, x1 = 0.4629",1.7 ± 0.1 mPa·s
same,viscosity,"313.15 K, 101.3 kPa, x1 = 0.5342",1.7 ± 0.1 mPa·s
same,viscosity,"313.15 K, 101.3 kPa, x1 = 0.614",1.9 ± 0.1 mPa·s
same,viscosity,"313.15 K, 101.3 kPa, x1 = 0.6891",2 ± 0.1 mPa·s
same,viscosity,"313.15 K, 101.3 kPa, x1 = 0.7654",2.1 ± 0.1 mPa·s
same,viscosity,"313.15 K, 101.3 kPa, x1 = 0.8114",2.1 ± 0.1 mPa·s
same,viscosity,"313.15 K, 101.3 kPa, x1 = 0.921",2.2 ± 0.1 mPa·s
same,viscosity,"318.15 K, 101 kPa, x1 = 0.0557",1.219 ± 0.0079 mPa·s
same,viscosity,"318.15 K, 101 kPa, x1 = 0.1172",1.263 ± 0.0082 mPa·s
same,viscosity,"318.15 K, 101 kPa, x1 = 0.1854",1.333 ± 0.0086 mPa·s
same,viscosity,"318.15 K, 101 kPa, x2 = 0.0999",2.056 ± 0.02 mPa·s
same,viscosity,"318.15 K, 101 kPa, x2 = 0.2004",1.995 ± 0.019 mPa·s
same,viscosity,"318.15 K, 101 kPa, x2 = 0.3002",1.912 ± 0.018 mPa·s
same,viscosity,"318.15 K, 101 kPa, x2 = 0.4",1.804 ± 0.017 mPa·s
same,viscosity,"318.15 K, 101 kPa, x2 = 0.5",1.685 ± 0.016 mPa·s
same,viscosity,"318.15 K, 101 kPa, x2 = 0.6",1.561 ± 0.015 mPa·s
same,viscosity,"318.15 K, 101 kPa, x2 = 0.6998",1.447 ± 0.013 mPa·s
same,viscosity,"318.15 K, 101 kPa, x2 = 0.8",1.344 ± 0.012 mPa·s
same,viscosity,"318.15 K, 101 kPa, x2 = 0.9001",1.266 ± 0.012 mPa·s
same,viscosity,"318.15 K, 101.3 kPa, x1 = 0.0961",1.1 ± 0.1 mPa·s
same,viscosity,"318.15 K, 101.3 kPa, x1 = 0.1755",1.1 ± 0.1 mPa·s
same,viscosity,"318.15 K, 101.3 kPa, x1 = 0.2494",1.2 ± 0.1 mPa·s
same,viscosity,"318.15 K, 101.3 kPa, x1 = 0.3192",1.3 ± 0.1 mPa·s
same,viscosity,"318.15 K, 101.3 kPa, x1 = 0.3902",1.4 ± 0.1 mPa·s
same,viscosity,"318.15 K, 101.3 kPa, x1 = 0.4629",1.5 ± 0.1 mPa·s
same,viscosity,"318.15 K, 101.3 kPa, x1 = 0.5342",1.5 ± 0.1 mPa·s
same,viscosity,"318.15 K, 101.3 kPa, x1 = 0.614",1.6 ± 0.1 mPa·s
same,viscosity,"318.15 K, 101.3 kPa, x1 = 0.6891",1.7 ± 0.1 mPa·s
same,viscosity,"318.15 K, 101.3 kPa, x1 = 0.7654",1.8 ± 0.1 mPa·s
same,viscosity,"318.15 K, 101.3 kPa, x1 = 0.8114",1.9 ± 0.1 mPa·s
same,viscosity,"318.15 K, 101.3 kPa, x1 = 0.921",1.9 ± 0.1 mPa·s
same,viscosity,"323.15 K, 101 kPa, x2 = 0.0999",1.86 ± 0.018 mPa·s
same,viscosity,"323.15 K, 101 kPa, x2 = 0.2004",1.801 ± 0.018 mPa·s
same,viscosity,"323.15 K, 101 kPa, x2 = 0.3002",1.722 ± 0.017 mPa·s
same,viscosity,"323.15 K, 101 kPa, x2 = 0.4",1.624 ± 0.016 mPa·s
same,viscosity,"323.15 K, 101 kPa, x2 = 0.5",1.517 ± 0.015 mPa·s
same,viscosity,"323.15 K, 101 kPa, x2 = 0.6",1.405 ± 0.013 mPa·s
same,viscosity,"323.15 K, 101 kPa, x2 = 0.6998",1.304 ± 0.012 mPa·s
same,viscosity,"323.15 K, 101 kPa, x2 = 0.8",1.212 ± 0.011 mPa·s
same,viscosity,"323.15 K, 101 kPa, x2 = 0.9001",1.141 ± 0.01 mPa·s
same,viscosity,"323.15 K, 101.3 kPa, x1 = 0.0961",0.92 ± 0.05 mPa·s
same,viscosity,"323.15 K, 101.3 kPa, x1 = 0.1755",0.95 ± 0.05 mPa·s
same,viscosity,"323.15 K, 101.3 kPa, x1 = 0.2494",1 ± 0.05 mPa·s
same,viscosity,"323.15 K, 101.3 kPa, x1 = 0.3192",1.05 ± 0.05 mPa·s
same,viscosity,"323.15 K, 101.3 kPa, x1 = 0.3902",1.1 ± 0.1 mPa·s
same,viscosity,"323.15 K, 101.3 kPa, x1 = 0.4629",1.2 ± 0.1 mPa·s
same,viscosity,"323.15 K, 101.3 kPa, x1 = 0.5342",1.3 ± 0.1 mPa·s
same,viscosity,"323.15 K, 101.3 kPa, x1 = 0.614",1.3 ± 0.1 mPa·s
same,viscosity,"323.15 K, 101.3 kPa, x1 = 0.6891",1.4 ± 0.1 mPa·s
same,viscosity,"323.15 K, 101.3 kPa, x1 = 0.7654",1.5 ± 0.1 mPa·s
same,viscosity,"323.15 K, 101.3 kPa, x1 = 0.8114",1.5 ± 0.1 mPa·s
same,viscosity,"323.15 K, 101.3 kPa, x1 = 0.921",1.6 ± 0.1 mPa·s
